{
  "source": "patent US10568961B2",
  "about": "“Photosensitising composition and its uses” (DENTSPLY SIRONA Inc., priority 2008, dated 2020)",
  "assay_type_in_all_cases": "cell-based, Enterococcus faecalis",
  "key": {"[1]": {"system": "E. faecalis biofilm in root canals", "experiment": "PDT of endodontic bacterial biofilm ex vivo (ten-week biofilm in tooth specimens)", "method": "Thirty tooth blocks were prepared by removing the crown at the level of cementoenamel junction and the apical third of the root canal (˜8 mm long). All specimens were instrumented using K-files with sizes from #20 to #40. The smear layer formed during mechanical shaping was removed by rinsing the root canal with sodium hypochlorite (1%) followed by EDTA (100 mM). The prepared single-rooted tooth specimens were incubated with 50 mL of AC media inoculated with a single colony of E. faecalis as described elsewhere (George S and Kishen A, J Biomed Opt, 2000). Incubation was carried out for ten weeks at 37° C. with periodical replacement of growth media under constant shaking (120 rpm). After the incubation period, the tooth specimens were randomly divided into five groups and were treated as follows:\nGroup 2—Root canal-treatment (RCT) group (n=5): root canals were subjected to conventional cleaning and shaping procedures performed by using a sequence of endodontic file sizes (#25 to #50 K-files; Maillefer Instruments SA, Switzerland). The root canals were repeatedly irrigated with 5 mL of 5.2% sodium hypochlorite before and after instrumentation step using a 28-G needle and a syringe. Ethylenediaminetetraacetic acid (EDTA) 17% was also used at the end of instrumentation to remove the smear layer. Group 3—Conventional PDT group (n=5): root canals were subjected to minimal instrumentation (using #25 K file). These root canals were filled with 100 μM MB in water and were irradiated with 664 nm laser light with a total energy of 31.84 J/cm^2. Group 4—PF4 group (n=5): root canals were subjected to minimal instrumentation (using #25 K file) followed by PDT using PF4. Here, the root canals were filled with PF4 and were left in the dark for 10 minutes. After the sensitization period, the excess of the photosensitizing formulation was partially replaced with perfluorodecahydro naphthalene and the root canals were irradiated with 664 nm diode laser with a total fluence of 31.84 J/cm^2. Group 5—RCT+PF4 group (n=5): root canals were subjected to the conventional root canal disinfection procedure similar to the conventional RCT group (i.e. Group 2) followed by PDT using PF4.\nAfter the specified treatment, the tooth-specimens were split open mesiodistally, and dentine shavings were collected using a round bur of 1 mm diameter held perpendicular to the root canal surface. The dentine shavings were collected at midpoint (coronoapically) from the two halves (buccal and lingual) of each root (n=12). […] Colony-forming units (CFU) were enumerated on the subsequent day, and the mean value of log10 number of bacteria and the standard error were calculated. […] The numbers of tubes positive for bacterial cells were counted against the total number of tubes."}, "[2]": {"system": "E. faecalis biofilms grown on a glass cover slip", "experiment": "Structural damage to biofilm by PDT in vitro (CLSM, live/dead stain)", "details": "seven-day biofilm, 664 nm, 31.84 J/cm^2", "method": "The structural damage to biofilm caused by PDT was assessed on E. faecalis biofilms grown on a glass cover slip that was fixed covering a grove (6 mm diameter) made at the bottom part of a petri dish. E. faecalis cell suspension (100 μL containing ˜10^7 cells/mL) prepared from overnight grown culture in All-Culture (AC) media was added onto the saliva-coated glass-cover slip. Six petri dishes containing the biofilm were tested in each group. After seven days of incubation with periodical replacement of growth media, the biofilm was washed and photosensitised with either 100 μM MB in water or PF4 (MB in an emulsion produced by mixing perfluorodecahydro naphthalene:H2O2:triton-X100 in the ratio 75:24.5:0.5). These biofilms were incubated in the dark for ten minutes, after which the excess of the photosensitising formulation was partially replaced with perfluorodecahydro naphthalene and exposed to irradiation using 664 nm diode laser with a total fluence of 31.84 J/cm^2.\nAfter the PDT, the washed biofilms were stained using 20 μL PBS containing 2 μL of live/dead stain (Molecular Probes, Eugene, Oreg., USA) and were observed using confocal laser scanning microscopy (CLSM). […] The optical sections of the biofilm structure were recorded and analyzed by using FluoView software (Olympus Corporation, Tokyo, Japan)."}, "[3]": {"system": "E. faecalis bacteria (ATCC 29212) biofilm", "experiment": "Disinfection of four-week old biofilm in root canal (CFU from dentine shavings)", "excerpt": "The institutional review board of the National University of Singapore approved the collection and use of extracted human teeth for this experiment. Thirty single rooted teeth maintained in Phosphate Buffer Saline (PBS) with similar shape and sizes were selected for the following experiment. The crown (at the level of Cemento-Enamel Junction) and the […] of the root were removed using a microslice machine (Metal Research, England) to obtain standard sized specimens of 8 mm length. The prepared tooth specimens were selected for the experiments after inspecting for any signs of cracks or damages on the cementum. The remnants of the pulp tissue were removed from the root canal using a barbed broach and the tooth specimens were autoclaved before further experiments.\nA single colony of E. faecalis bacteria (ATCC 29212) culture was incubated in All Culture Broth (AC Broth) for 8 hours. The optical density of the culture was adjusted to 1 at 600 nm that corresponds to 10^9 cells/mL. The sterilized tooth specimens were placed in the AC broth (50 mL) with the bacterial culture and incubated in an orbital incubator (120 rpm) at 37° C. under aerobic conditions. The culture medium was replenished once in every two days to remove dead cells and to ensure proper growth of bacteria. After four weeks of incubation, the tooth specimens were subjected to the following experiment.\nThis experiment was conducted to observe the efficiency of different antimicrobial treatments on a matured root canal biofilm. After the specific incubation period, the tooth specimens were removed and washed with sterile PBS. The specimens were randomly divided into five experimental groups and treated accordingly.\nGroup 2 (conventional PDT): The tooth specimens in this group were subjected to conventional PDT. The root canals of the specimens were filled with 100 μM of MB (photosensitization) for 20 minutes and was irradiated immediately with 660 nm laser light for 20 minutes to attain a total energy level of 36 J (n=6). […]"}, "[4]": {"details": "after 4 hours of enrichment, compared with the control group"}},
  "data": [
    {"smiles": "CN(C)c1ccc2nc3ccc(=[N+](C)C)cc-3sc2c1", "note": "[MB in water, Methylene blue]", "values": [
      {"measurement": "difference in the mean viable count", "setting": "[1]; [4]", "result": 1.5, "unit": "log10"},
      {"measurement": "reduction in viable bacteria", "setting": "[1]; [4]", "result": 96.89, "unit": "%"},
      {"measurement": "% of tooth specimens positive for bacteria after 24 hours of enrichment", "setting": "[1]; ten-week biofilm, dentine shavings", "result": 100, "unit": "%"},
      {"measurement": "CFU (log10) after 4 hours of enrichments (±SD)", "setting": "[1]; ten-week biofilm, dentine shavings, control group 7.147", "result": "5.639 (±0.066) log10"},
      {"measurement": "viability of biofilm bacteria after PDT", "setting": "[2]; live/dead stain", "result": "increased the proportion of dead cells"},
      {"measurement": "biofilm thickness after PDT", "setting": "[2]; untreated biofilm 17 μm", "result": 12, "unit": "μm"},
      {"measurement": "inactivation of bacteria", "setting": "[3]", "result": "failed to show significant bacterial reduction"},
      {"measurement": "difference in bacterial count", "setting": "[3]; compared to control group", "result": 0.38, "unit": "log10"},
      {"measurement": "bacterial kill", "setting": "[3]; corresponds to log10 difference vs control group", "result": 59, "unit": "%"}
    ]}
  ]
}
